From PubChem BioAssay AID330 (DTP/NCI, 2004)
Values joined by “and” are separate entries in the source; they are usually repeats but may differ in a detail not shown here. Identical values can stand only once. Inconclusive results and toxic doses are left out. The calls were made as follows: active = survival T/C of 150% or more; inactive = T/C below 125% in these data.

System: P388 leukemia ip, CD2F1 mice, survival T/C
Assay: NCI In Vivo Anticancer Drug Screen. Data for tumor model P388 Leukemia (intraperitoneal) in CD2F1 (CDF1) mice
Details: endpoint: median survival time, higher = longer survival
In short: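 Mice carrying the transplanted tumor received test compound or vehicle. Survival was recorded in each group, and the value is the treated-group measurement divided by that of the vehicle-treated control group.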

[1] = dose: 50.0 mg/kg/injection, schedule: Q01DX009 (ip), vehicle: saline with Tween-80
[2] = dose: 100.0 mg/kg/injection, schedule: Q01DX009 (ip), vehicle: saline with Tween-80
[3] = dose: 200.0 mg/kg/injection, schedule: Q01DX009 (ip), vehicle: saline with Tween-80
[4] = dose: 400.0 mg/kg/injection, schedule: Q01DX009 (ip), vehicle: saline with Tween-80
[5] = dose: 50.0 mg/kg/injection, schedule: Q01DX005 (ip), vehicle: saline with Tween-80
[6] = dose: 100.0 mg/kg/injection, schedule: Q01DX005 (ip), vehicle: saline with Tween-80
[7] = dose: 200.0 mg/kg/injection, schedule: Q01DX005 (ip), vehicle: saline with Tween-80
[8] = dose: 50.0 mg/kg/injection, schedule: Q01DX005 (ip), vehicle: Klucel (hydroxypropylcellulose) (HPC)
[9] = dose: 7.5 mg/kg/injection, schedule: Q01DX005 (ip), vehicle: Klucel (hydroxypropylcellulose) (HPC)
[10] = dose: 15.0 mg/kg/injection, schedule: Q01DX005 (ip), vehicle: Klucel (hydroxypropylcellulose) (HPC)
[11] = dose: 30.0 mg/kg/injection, schedule: Q01DX005 (ip), vehicle: Klucel (hydroxypropylcellulose) (HPC)

Measured: T/C

COc1cc([C@@H]2c3cc4c(cc3C[C@H]3COC(=O)[C@@H]32)OCO4)cc2c1OCO2
inactive: dose: 1.8 mg/kg/injection, schedule: Q01DX009 (ip), vehicle: distilled water + Tween-80 113 % of control | dose: 3.0 mg/kg/injection, schedule: Q01DX009 (ip), vehicle: Klucel (hydroxypropylcellulose) (HPC) 109 % of control | dose: 3.75 mg/kg/injection, schedule: Q01DX009 (ip), vehicle: distilled water + Tween-80 95 % of control | dose: 6.0 mg/kg/injection, schedule: Q01DX009 (ip), vehicle: Klucel (hydroxypropylcellulose) (HPC) 118 % of control | dose: 12.0 mg/kg/injection, schedule: Q01DX009 (ip), vehicle: Klucel (hydroxypropylcellulose) (HPC) 122 % of control

O=C(O)c1cc2sccc2c(=O)[nH]1
inactive: dose: 100.0 mg/kg/injection, schedule: Q04DX003 (ip), vehicle: Klucel (hydroxypropylcellulose) (HPC) 102 % of control | dose: 200.0 mg/kg/injection, schedule: Q04DX003 (ip), vehicle: Klucel (hydroxypropylcellulose) (HPC) 113 % of control | dose: 400.0 mg/kg/injection, schedule: Q04DX003 (ip), vehicle: Klucel (hydroxypropylcellulose) (HPC) 103 % of control

O=C(c1ccc([N+](=O)[O-])cc1)N1CCCSC1=S
inactive: dose: 60.0 mg/kg/injection, schedule: Q01DX005 (ip), vehicle: saline with Tween-80 107 % of control | dose: 120.0 mg/kg/injection, schedule: Q01DX005 (ip), vehicle: saline with Tween-80 98 % of control | dose: 240.0 mg/kg/injection, schedule: Q01DX005 (ip), vehicle: saline with Tween-80 101 % of control

CC(=O)Nc1ccc(OCCOCCOc2ccc(NC(C)=O)cc2)cc1
inactive: [1] 92 % of control | [2] 94 % of control | [3] 91 % of control

COc1cc(CC2COC(O)C2(O)Cc2ccc(O)c(OC)c2)ccc1O (configuration not stated)
inactive: dose: 8.25 mg/kg/injection, schedule: Q01DX005 (ip), vehicle: Klucel (hydroxypropylcellulose) (HPC) 101 % of control | dose: 16.5 mg/kg/injection, schedule: Q01DX005 (ip), vehicle: Klucel (hydroxypropylcellulose) (HPC) 101 % of control | dose: 33.0 mg/kg/injection, schedule: Q01DX005 (ip), vehicle: Klucel (hydroxypropylcellulose) (HPC) 106 % of control | dose: 66.0 mg/kg/injection, schedule: Q01DX005 (ip), vehicle: Klucel (hydroxypropylcellulose) (HPC) 92 % of control

CC1CC2OC(/C=C/C=C/C=C/C=C\C=C\C(O)=C3/C(=O)C(C(C)C)N(C)C3=O)C(O)C2O1 (configuration not stated)
inactive: dose: 310.0 micrograms/kg/injection, schedule: Q01DX005 (ip), vehicle: saline with Tween-80 99 % of control | dose: 625.0 micrograms/kg/injection, schedule: Q01DX005 (ip), vehicle: saline with Tween-80 94 % of control | dose: 1250.0 micrograms/kg/injection, schedule: Q01DX005 (ip), vehicle: saline with Tween-80 101 % of control | dose: 2500.0 micrograms/kg/injection, schedule: Q01DX005 (ip), vehicle: saline with Tween-80 99 % of control | dose: 5000.0 micrograms/kg/injection, schedule: Q01DX005 (ip), vehicle: saline with Tween-80 99 % of control

O=C1NC(=O)C2(CC3CCCC(C2)N3CCO)N1 (configuration not stated)
inactive: dose: 50.0 mg/kg/injection, schedule: Q01DX009 (ip), vehicle: water 101 % of control | dose: 100.0 mg/kg/injection, schedule: Q01DX009 (ip), vehicle: water 101 % of control | dose: 200.0 mg/kg/injection, schedule: Q01DX009 (ip), vehicle: water 100 % of control

O=C(NC(=NC(=NC1CCCCC1)c1ccccc1)c1ccccc1)c1ccccc1
inactive: [1] 99 % of control | [2] 92 % of control | [3] 89 % of control

O=CNc1ccc(O)cc1
inactive: [2] 100 % of control | [3] 109 % of control | [4] 118 % of control

O=C1CCCc2[nH]c3ccc(F)cc3c21
inactive: [5] 91 % of control | [6] 90 % of control | [7] 88 % of control

O=C1c2cc3c(cc2C(=O)c2ncccc21)CCCC3
inactive: [5] 98 % of control | [6] 86 % of control | [7] 89 % of control

CC1CC23C4CCCN2CC2OC2C13C1CC4OC1=O (configuration not stated)
inactive: dose: 12.5 mg/kg/injection, schedule: Q01DX009 (ip), vehicle: Klucel (hydroxypropylcellulose) (HPC) 114 % of control | dose: 25.0 mg/kg/injection, schedule: Q01DX009 (ip), vehicle: Klucel (hydroxypropylcellulose) (HPC) 113 % of control | dose: 50.0 mg/kg/injection, schedule: Q01DX009 (ip), vehicle: Klucel (hydroxypropylcellulose) (HPC) 115 % of control | dose: 100.0 mg/kg/injection, schedule: Q01DX009 (ip), vehicle: Klucel (hydroxypropylcellulose) (HPC) 113 % of control

CCN(CC)[P+](c1ccccc1O)(N(CC)CC)N(CC)CC
inactive: dose: 1.56 mg/kg/injection, schedule: Q01DX009 (ip), vehicle: saline 100 % of control | dose: 3.12 mg/kg/injection, schedule: Q01DX009 (ip), vehicle: saline 101 % of control

CCCCCC(CN(C)C)C(=O)/C=C/c1ccc(Br)cc1 (configuration not stated)
inactive: dose: 6.25 mg/kg/injection, schedule: Q01DX005 (ip), vehicle: saline 100 % of control | dose: 12.5 mg/kg/injection, schedule: Q01DX005 (ip), vehicle: saline 110 % of control | dose: 25.0 mg/kg/injection, schedule: Q01DX005 (ip), vehicle: saline 107 % of control | dose: 50.0 mg/kg/injection, schedule: Q01DX005 (ip), vehicle: saline 102 % of control

Cc1[nH]c(=O)[nH]c(=O)c1/C=C/C(=O)NC(CO)CS(=O)CS(C)=O (configuration not stated)
inactive: dose: 1.2 mg/kg/injection, schedule: Q01DX009 (ip), vehicle: water 119 % of control | dose: 2.2 mg/kg/injection, schedule: Q01DX009 (ip), vehicle: water 122 % of control | dose: 2.4 mg/kg/injection, schedule: Q01DX009 (ip), vehicle: water 119 % of control

C=C(C)C1CC=C(CCCC(C)COC2OCC(OC(=O)/C(C)=C/CCC3=CCC(C(=C)C)CC3O)C(O)C2O)CC1 (configuration not stated)
inactive: dose: 10.75 mg/kg/injection, schedule: Q01DX005 (ip), vehicle: Klucel (hydroxypropylcellulose) (HPC) 103 % of control | dose: 21.5 mg/kg/injection, schedule: Q01DX005 (ip), vehicle: Klucel (hydroxypropylcellulose) (HPC) 114 % of control | dose: 43.0 mg/kg/injection, schedule: Q01DX005 (ip), vehicle: Klucel (hydroxypropylcellulose) (HPC) 119 % of control

COc1ccc2c(c1)C(c1cccc3ccccc13)OC2 (configuration not stated)
inactive: dose: 12.5 mg/kg/injection, schedule: Q01DX005 (ip), vehicle: Klucel (hydroxypropylcellulose) (HPC) 100 % of control | dose: 25.0 mg/kg/injection, schedule: Q01DX005 (ip), vehicle: Klucel (hydroxypropylcellulose) (HPC) 88 % of control | [8] 86 % of control and 91 % of control

CCCCN1CCC2(C)c3cc(O)ccc3CC1C2CC (configuration not stated)
inactive: [9] 101 % of control | [10] 100 % of control | [11] 97 % of control

CC1CCC(n2cnc3c(=S)nc[nH]c32)O1 (configuration not stated)
inactive: dose: 66.0 mg/kg/injection, schedule: Q01DX009 (ip), vehicle: saline with Tween-80 104 % of control | [2] 113 % of control | dose: 100.0 mg/kg/injection, schedule: Q04DX003 (ip), vehicle: saline with Tween-80 109 % of control | dose: 150.0 mg/kg/injection, schedule: Q01DX009 (ip), vehicle: saline with Tween-80 90 % of control | [3] 100 % of control | dose: 200.0 mg/kg/injection, schedule: Q04DX003 (ip), vehicle: saline with Tween-80 118 % of control | dose: 400.0 mg/kg/injection, schedule: Q04DX003 (ip), vehicle: saline with Tween-80 118 % of control

Nc1nc(Nc2ccccc2)nc(-c2ccccc2)n1
inactive: [5] 100 % of control | [6] 86 % of control

COC1=CC(=O)C(C#CCOCc2ccccc2)=CC1=O
inactive: [9] 100 % of control | [10] 102 % of control | [11] 105 % of control

COc1ccc2c(c1)CCC1C2=CCP1(C)=O (configuration not stated)
inactive: dose: 25.0 mg/kg/injection, schedule: Q01DX009 (ip), vehicle: saline 97 % of control | dose: 50.0 mg/kg/injection, schedule: Q01DX009 (ip), vehicle: saline 101 % of control | dose: 100.0 mg/kg/injection, schedule: Q01DX009 (ip), vehicle: saline 93 % of control | dose: 200.0 mg/kg/injection, schedule: Q01DX009 (ip), vehicle: saline 91 % of control

CCN(CC)C(=S)C(C)=C(Sc1ccccc1)Sc1ccccc1
inactive: [8] 100 % of control | dose: 100.0 mg/kg/injection, schedule: Q01DX005 (ip), vehicle: Klucel (hydroxypropylcellulose) (HPC) 99 % of control | dose: 200.0 mg/kg/injection, schedule: Q01DX005 (ip), vehicle: Klucel (hydroxypropylcellulose) (HPC) 99 % of control

CCN(CC)c1ccc(/C=C2/C=Cc3ccccc32)cc1
inactive: [2] 105 % of control | [3] 100 % of control | [4] 95 % of control
